Where two headings read alike, the source gives them in different places.
Columns and labels:
[1] = molecular target: IRAK3 (Homo sapiens, UniProt Q9Y616); details: 0.1 µM; binder
[2] = molecular target: SGK2 (Homo sapiens, UniProt Q9HBY8); details: 0.1 µM; binder
[3] = molecular target: PIK3CA(C420R) (Homo sapiens, UniProt P42336, C420R); details: 0.1 µM; binder
[4] = molecular target: SRPK2 (Homo sapiens, UniProt P78362); details: 0.1 µM; binder
[5] = molecular target: ASK1 (Homo sapiens, UniProt Q99683); details: 0.1 µM; binder
[6] = molecular target: SLK (Homo sapiens, UniProt Q9H2G2); details: 0.1 µM; binder
[7] = molecular target: CDK7 (Homo sapiens, UniProt P50613); details: 0.1 µM; binder
[8] = molecular target: TBK1 (Homo sapiens, UniProt Q9UHD2); details: 0.1 µM; binder
[9] = molecular target: PIK3CA(E545K) (Homo sapiens, UniProt P42336, E545K); details: 0.1 µM; binder
PIK3CA(E545K), sequence (P42336 whole entry E545K): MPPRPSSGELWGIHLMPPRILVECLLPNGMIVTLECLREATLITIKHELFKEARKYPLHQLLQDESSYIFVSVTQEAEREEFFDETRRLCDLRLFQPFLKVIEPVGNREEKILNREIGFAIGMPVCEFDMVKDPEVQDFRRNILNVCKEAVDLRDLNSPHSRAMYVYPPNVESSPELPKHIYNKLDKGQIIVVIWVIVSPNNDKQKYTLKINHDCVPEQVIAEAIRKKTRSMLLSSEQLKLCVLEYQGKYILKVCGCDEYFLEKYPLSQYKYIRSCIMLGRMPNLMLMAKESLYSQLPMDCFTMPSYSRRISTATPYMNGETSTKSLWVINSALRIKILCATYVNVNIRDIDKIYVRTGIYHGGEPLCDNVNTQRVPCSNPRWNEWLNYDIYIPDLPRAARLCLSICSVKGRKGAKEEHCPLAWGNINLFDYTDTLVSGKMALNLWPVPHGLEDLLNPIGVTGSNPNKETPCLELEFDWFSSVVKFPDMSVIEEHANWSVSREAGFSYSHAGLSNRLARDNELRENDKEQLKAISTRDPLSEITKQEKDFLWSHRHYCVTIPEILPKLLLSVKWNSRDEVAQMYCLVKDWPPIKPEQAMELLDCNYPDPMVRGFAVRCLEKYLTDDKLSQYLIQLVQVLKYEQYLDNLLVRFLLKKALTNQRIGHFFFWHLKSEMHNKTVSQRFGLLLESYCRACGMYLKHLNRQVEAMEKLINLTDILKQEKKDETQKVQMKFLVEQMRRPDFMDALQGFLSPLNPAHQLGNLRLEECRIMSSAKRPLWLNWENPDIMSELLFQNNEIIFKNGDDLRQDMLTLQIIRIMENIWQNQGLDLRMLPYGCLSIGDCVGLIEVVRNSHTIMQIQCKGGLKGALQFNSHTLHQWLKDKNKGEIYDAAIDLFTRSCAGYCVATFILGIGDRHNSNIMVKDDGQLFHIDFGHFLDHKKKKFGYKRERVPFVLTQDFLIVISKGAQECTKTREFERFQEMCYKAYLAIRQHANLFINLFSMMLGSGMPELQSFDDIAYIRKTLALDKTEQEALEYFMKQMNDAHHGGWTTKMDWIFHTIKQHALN

[10] = molecular target: MKNK2 (Homo sapiens, UniProt Q9HBH9); details: 0.1 µM; binder
[11] = molecular target: FLT3(D835V) (Homo sapiens, UniProt P36888, D835V); details: 0.1 µM; binder
[12] = molecular target: TNK2 (Homo sapiens, UniProt Q07912); details: 0.1 µM; binder
[13] = molecular target: BTK (Homo sapiens, UniProt Q06187); details: 0.1 µM; binder
BTK, sequence (Q06187 whole entry): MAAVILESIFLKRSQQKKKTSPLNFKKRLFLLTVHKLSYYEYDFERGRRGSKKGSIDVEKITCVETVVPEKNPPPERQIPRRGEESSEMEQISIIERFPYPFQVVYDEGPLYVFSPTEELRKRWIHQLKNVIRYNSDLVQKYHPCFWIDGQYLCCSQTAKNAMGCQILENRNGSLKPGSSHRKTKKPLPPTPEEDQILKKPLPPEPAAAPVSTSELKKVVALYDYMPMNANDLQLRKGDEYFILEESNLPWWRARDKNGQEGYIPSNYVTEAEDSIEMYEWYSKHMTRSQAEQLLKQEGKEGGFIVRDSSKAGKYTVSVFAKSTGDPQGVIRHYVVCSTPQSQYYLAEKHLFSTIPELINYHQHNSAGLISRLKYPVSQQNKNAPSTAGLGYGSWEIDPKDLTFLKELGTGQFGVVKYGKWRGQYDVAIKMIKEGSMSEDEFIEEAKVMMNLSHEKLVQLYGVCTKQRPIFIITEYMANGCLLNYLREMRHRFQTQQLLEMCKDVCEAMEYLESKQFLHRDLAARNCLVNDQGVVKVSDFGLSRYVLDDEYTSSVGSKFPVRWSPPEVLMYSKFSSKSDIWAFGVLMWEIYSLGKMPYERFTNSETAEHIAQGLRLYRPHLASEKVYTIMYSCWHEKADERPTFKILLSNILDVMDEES

[14] = molecular target: MYLK4 (Homo sapiens, UniProt Q86YV6); details: 0.1 µM; binder
[15] = molecular target: CDK2 (Homo sapiens, UniProt P24941); details: 0.1 µM; binder
[16] = molecular target: MAP3K4 (Homo sapiens, UniProt Q9Y6R4); details: 0.1 µM; binder
MAP3K4, sequence (Q9Y6R4 whole entry): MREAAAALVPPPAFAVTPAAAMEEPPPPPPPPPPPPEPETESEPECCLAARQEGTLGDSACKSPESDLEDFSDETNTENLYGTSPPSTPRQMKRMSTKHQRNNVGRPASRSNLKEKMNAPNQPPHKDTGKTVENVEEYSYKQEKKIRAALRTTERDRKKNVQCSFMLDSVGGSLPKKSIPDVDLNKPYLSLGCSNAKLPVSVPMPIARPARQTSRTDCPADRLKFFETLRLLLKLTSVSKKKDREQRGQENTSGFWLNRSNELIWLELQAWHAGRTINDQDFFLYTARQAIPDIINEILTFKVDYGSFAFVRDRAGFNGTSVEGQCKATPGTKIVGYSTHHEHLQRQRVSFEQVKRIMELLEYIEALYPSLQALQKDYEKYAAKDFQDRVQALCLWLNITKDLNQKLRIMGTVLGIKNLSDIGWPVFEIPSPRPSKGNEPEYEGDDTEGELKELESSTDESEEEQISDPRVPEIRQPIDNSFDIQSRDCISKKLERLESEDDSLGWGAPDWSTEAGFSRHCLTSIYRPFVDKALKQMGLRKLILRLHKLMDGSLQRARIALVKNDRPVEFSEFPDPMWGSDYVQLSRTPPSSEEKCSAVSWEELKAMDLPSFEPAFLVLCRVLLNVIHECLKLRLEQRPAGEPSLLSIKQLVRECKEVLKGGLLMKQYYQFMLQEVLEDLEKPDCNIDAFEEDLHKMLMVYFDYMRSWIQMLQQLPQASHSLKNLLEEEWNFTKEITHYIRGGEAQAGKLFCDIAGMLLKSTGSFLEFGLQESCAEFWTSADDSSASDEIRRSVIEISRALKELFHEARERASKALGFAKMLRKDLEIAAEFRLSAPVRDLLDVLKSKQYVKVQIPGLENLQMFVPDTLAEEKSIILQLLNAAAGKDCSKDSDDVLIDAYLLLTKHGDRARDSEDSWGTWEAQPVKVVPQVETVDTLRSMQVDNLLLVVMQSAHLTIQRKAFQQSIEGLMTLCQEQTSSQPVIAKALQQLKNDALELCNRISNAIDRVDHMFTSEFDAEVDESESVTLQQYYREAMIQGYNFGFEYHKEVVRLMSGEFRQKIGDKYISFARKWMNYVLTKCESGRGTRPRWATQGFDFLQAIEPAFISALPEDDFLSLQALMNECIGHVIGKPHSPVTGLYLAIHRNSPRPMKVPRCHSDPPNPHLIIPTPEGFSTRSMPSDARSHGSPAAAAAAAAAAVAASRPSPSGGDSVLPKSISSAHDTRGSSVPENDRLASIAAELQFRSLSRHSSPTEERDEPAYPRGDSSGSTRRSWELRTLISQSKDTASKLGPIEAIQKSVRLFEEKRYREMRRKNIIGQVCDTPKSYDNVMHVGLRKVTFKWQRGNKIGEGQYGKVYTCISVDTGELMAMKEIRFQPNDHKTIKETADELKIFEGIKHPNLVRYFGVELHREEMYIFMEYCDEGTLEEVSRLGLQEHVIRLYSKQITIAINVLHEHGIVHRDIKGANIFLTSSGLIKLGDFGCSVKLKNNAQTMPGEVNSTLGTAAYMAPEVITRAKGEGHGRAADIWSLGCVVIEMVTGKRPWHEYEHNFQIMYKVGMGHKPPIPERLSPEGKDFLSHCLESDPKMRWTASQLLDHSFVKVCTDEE

[17] = molecular target: GRK4 (Homo sapiens, UniProt P32298); details: 0.1 µM; binder
[18] = molecular target: WEE1 (Homo sapiens, UniProt P30291); details: 0.1 µM; binder
[19] = molecular target: EPHB3 (Homo sapiens, UniProt P54753); details: 0.1 µM; binder
EPHB3, sequence (P54753 whole entry): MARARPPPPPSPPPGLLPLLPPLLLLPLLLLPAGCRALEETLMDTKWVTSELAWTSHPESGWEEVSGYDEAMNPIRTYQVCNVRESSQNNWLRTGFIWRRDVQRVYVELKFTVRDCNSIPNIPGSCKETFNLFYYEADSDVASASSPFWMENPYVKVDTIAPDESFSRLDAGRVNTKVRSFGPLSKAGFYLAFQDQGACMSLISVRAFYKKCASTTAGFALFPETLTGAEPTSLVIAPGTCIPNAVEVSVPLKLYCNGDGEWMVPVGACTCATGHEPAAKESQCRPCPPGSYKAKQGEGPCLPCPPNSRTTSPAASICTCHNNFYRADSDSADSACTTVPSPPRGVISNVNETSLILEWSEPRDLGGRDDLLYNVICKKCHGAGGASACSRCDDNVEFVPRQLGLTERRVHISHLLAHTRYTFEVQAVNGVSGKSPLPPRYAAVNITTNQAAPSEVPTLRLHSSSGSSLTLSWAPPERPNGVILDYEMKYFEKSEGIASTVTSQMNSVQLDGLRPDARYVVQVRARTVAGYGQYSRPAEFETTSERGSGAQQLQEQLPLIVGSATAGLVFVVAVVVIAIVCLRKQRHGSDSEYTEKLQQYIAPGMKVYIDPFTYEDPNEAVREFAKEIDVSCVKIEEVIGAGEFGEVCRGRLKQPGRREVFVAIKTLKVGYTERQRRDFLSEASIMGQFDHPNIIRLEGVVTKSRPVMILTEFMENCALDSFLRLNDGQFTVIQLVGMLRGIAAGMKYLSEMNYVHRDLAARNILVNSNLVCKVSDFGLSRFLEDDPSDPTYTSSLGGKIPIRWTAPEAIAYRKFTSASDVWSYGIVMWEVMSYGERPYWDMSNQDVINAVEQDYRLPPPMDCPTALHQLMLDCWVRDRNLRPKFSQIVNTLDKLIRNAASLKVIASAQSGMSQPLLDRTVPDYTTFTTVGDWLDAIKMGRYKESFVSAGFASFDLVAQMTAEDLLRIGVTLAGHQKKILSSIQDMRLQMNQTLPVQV

[20] = molecular target: MYLK (Homo sapiens, UniProt Q15746); details: 0.1 µM; binder
[21] = molecular target: FYN (Homo sapiens, UniProt P06241); details: 0.1 µM; binder
[22] = molecular target: PRKX (Homo sapiens, UniProt P51817); details: 0.1 µM; binder
[23] = molecular target: PRKD3 (Homo sapiens, UniProt O94806); details: 0.1 µM; binder
[24] = molecular target: HIPK2 (Homo sapiens, UniProt Q9H2X6); details: 0.1 µM; binder
[25] = molecular target: MERTK (Homo sapiens, UniProt Q12866); details: 0.1 µM; binder
[26] = molecular target: CDKL2 (Homo sapiens, UniProt Q92772); details: 0.1 µM; binder
[27] = molecular target: ROS1 (Homo sapiens, UniProt P08922); details: 0.1 µM; binder
[28] = molecular target: PIK3CA(H1047Y) (Homo sapiens, UniProt P42336, H1047Y); details: 0.1 µM; binder
PIK3CA(H1047Y), sequence (P42336 whole entry H1047Y): as the sequence (P42336 whole entry E545K) above, with K545E, H1047Y counted along it

[29] = molecular target: ABL1(T315I) (Homo sapiens, UniProt P00519, T315I); details: 0.1 µM, binder
[30] = molecular target: ICK (Homo sapiens, UniProt Q9UPZ9); details: 0.1 µM; binder
ICK, sequence (Q9UPZ9 whole entry): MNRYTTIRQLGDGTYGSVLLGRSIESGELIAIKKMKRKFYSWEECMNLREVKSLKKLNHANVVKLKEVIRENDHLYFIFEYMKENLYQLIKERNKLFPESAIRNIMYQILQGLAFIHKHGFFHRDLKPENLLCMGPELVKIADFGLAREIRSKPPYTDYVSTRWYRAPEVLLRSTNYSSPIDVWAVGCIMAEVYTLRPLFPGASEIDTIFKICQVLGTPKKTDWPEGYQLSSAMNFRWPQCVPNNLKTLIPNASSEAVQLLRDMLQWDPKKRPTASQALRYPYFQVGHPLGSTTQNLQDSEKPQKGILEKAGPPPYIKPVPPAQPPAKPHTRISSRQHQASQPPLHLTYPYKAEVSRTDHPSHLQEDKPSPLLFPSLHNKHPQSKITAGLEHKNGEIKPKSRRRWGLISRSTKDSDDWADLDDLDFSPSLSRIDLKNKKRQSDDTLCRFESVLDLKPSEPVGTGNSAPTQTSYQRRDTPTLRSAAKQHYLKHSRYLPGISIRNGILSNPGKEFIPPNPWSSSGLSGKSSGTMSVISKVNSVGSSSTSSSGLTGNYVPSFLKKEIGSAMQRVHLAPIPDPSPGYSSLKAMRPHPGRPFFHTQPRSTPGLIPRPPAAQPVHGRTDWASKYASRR

[31] = molecular target: SIK2 (Homo sapiens, UniProt Q9H0K1); details: 0.1 µM; binder

PIK3CA(C420R), sequence (P42336 whole entry C420R): as the sequence (P42336 whole entry E545K) above, with C420R, K545E counted along it

CNc1ncc2cc(-c3ccc(-c4cccc(C)n4)cc3Cl)c(=O)n(C[C@H]3OC[C@H](N)CO3)c2n1 [compound 6, G-5555]
Percent Control [1]: 95%
Percent Control [2]: 100%
Percent Control [3]: 80%
Percent Control [4]: 98%
Percent Control [5]: 99%
Percent Control [6]: 89%
Percent Control [7]: 100%
Percent Control [8]: 100%
Percent Control [9]: 85%
Percent Control [10]: 100%
Percent Control [11]: 85%
Percent Control [12]: 92%
Percent Control [13]: 87%
Percent Control [14]: 100%
Percent Control [15]: 96%
Percent Control [16]: 84%
Percent Control [17]: 100%
Percent Control [18]: 98%
Percent Control [19]: 100%
Percent Control [20]: 75%
Percent Control [21]: 100%
Percent Control [22]: 100%
Percent Control [23]: 95%
Percent Control [24]: 100%
Percent Control [25]: 95%
Percent Control [26]: 100%
Percent Control [27]: 100%
Percent Control [28]: 73%
Percent Control ([29]; nonphosphorylated): 90%
Percent Control ([29]; phosphorylated): 100%
Percent Control [30]: 100%
Percent Control [31]: 6.5%

— publication doi:10.1101/2021.04.08.439011v1 (biorxiv, 2021)
